Data: ChEMBL document CHEMBL5608141, “Identification of compartment-specific drug sensitivities in CRC organoid-stroma co-cultures” (2024)

Legend:
Type in all cases: functional, Homo sapiens
Set-up in all cases: dose or concentration left out as unconfirmed
[1] = test system: Colon cancer organoid; test: Identification of compartment-specific drug sensitivities in O06 CRC organoid-stroma F06 CAF co-cultures. Organoid is transduced with Lucferase2-P2A-EGFP lentivirus, fibroblast with Renilla-dsRed lentivirus. Dual-Glo Luciferase assay is used to report viability data.
[2] = test system: Colon cancer organoid; test: Identification of compartment-specific drug sensitivities in O14 CRC organoid-stroma F14 CAF co-cultures. Organoid is transduced with Lucferase2-P2A-EGFP lentivirus, fibroblast with Renilla-dsRed lentivirus. Dual-Glo Luciferase assay is used to report viability data.
[3] = test system: Colon cancer organoid; test: Identification of compartment-specific drug sensitivities in O20 CRC organoid-stroma F20 CAF co-cultures. Organoid is transduced with Lucferase2-P2A-EGFP lentivirus, fibroblast with Renilla-dsRed lentivirus. Dual-Glo Luciferase assay is used to report viability data.
[4] = Transduced with Lucferase2-P2A-EGFP lentivirus
[5] = Transduced with Renilla-dsRed lentivirus

| Structure (SMILES) | Cell Viability [1, 4] [%] | Cell Viability [1, 5] [%] | Cell Viability [2, 4] [%] | Cell Viability [2, 5] [%] | Cell Viability [3, 4] [%] | Cell Viability [3, 5] [%] |
| --- | --- | --- | --- | --- | --- | --- |
| Cc1c(C(=O)Nc2ccc(Oc3ccnc4[nH]cc(-c5ccccc5)c34)c(F)c2)c(=O)n(-c2ccc(F)cc2)n1C | 73.6786 | 56.2803 | 62.1416 | 28.9447 | 225.47 | 22.9382 |
| Cc1ncsc1-c1ccc(CNC(=O)[C@@H]2C[C@@H](O)CN2C(=O)[C@@H](NC(=O)CCCCNC(=O)c2ccc(-c3ccc(N4CCN(C)CC4)c(NC(=O)c4c[nH]c(=O)cc4C(F)(F)F)c3)cc2)C(C)(C)C)cc1 | 81.8894 | 85.2238 | 124.425 | 102.442 | 172.591 | 86.697 |
| O=C(CNCc1cc2ccccc2[nH]1)N[C@H]1CC[C@@H](c2nc3ccccc3[nH]2)CC1 | 85.8975 | 91.436 | 106.264 | 107.393 | 100.403 | 124.153 |
| N#CN1CC[C@H](C(=O)Nc2nc3c(s2)CN(C(=O)CN=[N+]=[N-])CC3)C1 [8RK64] | 104.648 | 104.354 | 81.1298 | 93.9024 | 67.6209 | 105.29 |
| CN(C)[C@@H]1CCN(c2cc(-c3ccccc3)nc3ccnn23)C1 [(R)-ZINC-3573] | 122.992 | 121.371 | 83.9602 | 82.5117 | 97.984 | 99.7993 |
| CN(C)[C@H]1CCN(c2cc(-c3ccccc3)nc3ccnn23)C1 [(S)-ZINC-3573] | 87.7689 | 121.05 | 98.973 | 77.8832 | 93.0253 | 112.128 |
| Cn1cncc1[C@@](O)(COc1ccc(C#N)cc1-c1ccc(OC(F)(F)F)cc1)c1ccc(C#N)cc1 [A-108] | 61.6996 | 139.827 | 94.7328 | 120.862 | 89.1467 | 110.638 |
| CCC(=N\O)/C(C)=C/c1ccc(F)c(C)c1 [A-226] | 127.527 | 100.08 | 131.471 | 101.092 | 93.31 | 115.263 |
| CCCCN(CCCC)C(=O)CN1C[C@@H](c2cc(OC)c3c(c2)OCO3)[C@H](C(=O)O)[C@H]1CC(C)(C)CCC [A-545] | 84.2855 | 55.5874 | 148.86 | 126.562 | 123.099 | 97.2502 |
| CSc1cccnc1N1CCN(Cc2nc3ccccc3[nH]2)CC1 [A-769] | 75.6066 | 105.586 | 118.57 | 113.172 | 125.432 | 98.3481 |
| CN(C)CC#Cc1ccc(OCCCc2sc(N3CCc4cccc(C(=O)Nc5nc6ccccc6s5)c4C3)nc2C(=O)O)c(F)c1 [A-1155463] | 0.3385 | 128.541 | 2.034 | 67.3537 | 1.1769 | 177.943 |
| CO[C@H]1CC[C@H](CNc2ccc(S(=O)(=O)NC(=O)c3ccc(N4CCN(CC5=C(c6ccc(Cl)cc6)CC(C)(C)CC5)CC4)cc3Oc3cnc4[nH]ccc4c3)cc2[N+](=O)[O-])CC1 [A-1211212] | 8.693 | 108.861 | 54.5485 | 97.9178 | 16.4932 | 159.244 |
| COc1ccc2c(c1)O[C@H](c1ccc(OC)c(OC)c1)C[C@@H]2NC(=O)C1(c2ccc3c(c2)OC(F)(F)O3)CC1 [A-1596584] | 86.7173 | 88.6658 | 91.0132 | 118.771 | 73.1553 | 142.746 |
| COc1ccc2c(c1)O[C@@H](c1ccc(OC)c(OC)c1)C[C@H]2NC(=O)C1(c2ccc3c(c2)OC(F)(F)O3)CC1 [A-1596586] | 95.9961 | 117.187 | 83.2966 | 94.4694 | 84.651 | 101.93 |
